For data set [1], the system named is Lipopolysaccharide (LPS) induced tumor necrosis factor (TNF) production. Description: LPS induced TNF production in mice (Examples I-1, I-2). The class given is in vivo. The settings on record: for reduction in serum TNF: Example I-1; for inhibited TNF production: Example I-2. How it is done:
Mice were exposed to lipopolysaccharide to induce production of tumor necrosis factor as described by Cornwell, et. al. (Lipopolysaccharide, but not lethal infection, releases tumor necrosis factor in mice. Cornwell, R. D.; Golenbock, D. T.; Proctor, R. A. Adv.; Exp. Med. Biol. (1990), 256(Endotoxin), 585-8.). The mice were divided in to groups of eight animals each. All animals received an intraperitoneal (IP) injection of 50 μg/kg of LPS. The vehicle control group of animals received 0.2 mL of a vehicle of tween80 (5%), 95% ethanol (5%) and water 90%, sixty minutes prior to administration of LPS, and an IP injection of 0.2 mL of water fifteen minutes prior to administration of LPS. […] A group of mice (F1 group) were administered 0.2 mL of a vehicle of tween80 (5%), 95% ethanol (5%) and water 90%, sixty minutes prior to administration of LPS, and Example F1, at a dose of 7.5 mg/kg, IP in water, fifteen minutes prior to administration of LPS. […] A group of mice (dexamethasone group) were administered a 5 mg/kg dose of dexamethasone in a vehicle of tween80 (5%), 95% ethanol (5%) and water 90%, sixty minutes prior to administration of LPS, and 0.2 mL of water IP, fifteen minutes prior to administration of LPS.
Cilomilast inhibited TNF production by 56% (p<0.05). […] Finally the dexamethasone control inhibited TNF production 94%.

The target in the next data set is T1, PDE6 (Bos taurus, UniProt P11541+P23439).
T1 construct: PDE6, bovine retina; from tissue; host or cells: bovine retina
T1 sequence (P11541 2-856 limits assumed): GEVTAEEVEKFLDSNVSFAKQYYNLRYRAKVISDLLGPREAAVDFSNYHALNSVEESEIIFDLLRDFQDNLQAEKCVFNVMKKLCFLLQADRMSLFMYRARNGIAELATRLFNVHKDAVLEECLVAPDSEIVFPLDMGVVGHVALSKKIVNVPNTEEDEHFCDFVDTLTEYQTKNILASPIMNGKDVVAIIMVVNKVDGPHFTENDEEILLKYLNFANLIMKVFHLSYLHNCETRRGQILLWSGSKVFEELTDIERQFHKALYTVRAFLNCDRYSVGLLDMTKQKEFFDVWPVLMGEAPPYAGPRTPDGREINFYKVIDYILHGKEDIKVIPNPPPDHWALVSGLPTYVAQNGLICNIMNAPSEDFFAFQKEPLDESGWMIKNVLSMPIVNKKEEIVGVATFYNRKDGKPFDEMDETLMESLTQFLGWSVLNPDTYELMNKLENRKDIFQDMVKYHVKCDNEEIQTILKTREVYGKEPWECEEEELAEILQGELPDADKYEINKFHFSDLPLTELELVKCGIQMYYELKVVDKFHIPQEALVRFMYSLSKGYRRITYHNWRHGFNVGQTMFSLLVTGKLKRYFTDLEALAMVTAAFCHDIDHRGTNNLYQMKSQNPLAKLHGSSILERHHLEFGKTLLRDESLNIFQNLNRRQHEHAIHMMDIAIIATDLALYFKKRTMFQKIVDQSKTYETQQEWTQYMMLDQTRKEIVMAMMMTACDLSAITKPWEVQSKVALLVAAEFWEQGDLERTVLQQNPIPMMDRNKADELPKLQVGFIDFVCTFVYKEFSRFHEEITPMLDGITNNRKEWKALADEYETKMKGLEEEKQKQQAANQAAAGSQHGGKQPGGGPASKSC
T1 sequence (P23439 2-850 limits assumed): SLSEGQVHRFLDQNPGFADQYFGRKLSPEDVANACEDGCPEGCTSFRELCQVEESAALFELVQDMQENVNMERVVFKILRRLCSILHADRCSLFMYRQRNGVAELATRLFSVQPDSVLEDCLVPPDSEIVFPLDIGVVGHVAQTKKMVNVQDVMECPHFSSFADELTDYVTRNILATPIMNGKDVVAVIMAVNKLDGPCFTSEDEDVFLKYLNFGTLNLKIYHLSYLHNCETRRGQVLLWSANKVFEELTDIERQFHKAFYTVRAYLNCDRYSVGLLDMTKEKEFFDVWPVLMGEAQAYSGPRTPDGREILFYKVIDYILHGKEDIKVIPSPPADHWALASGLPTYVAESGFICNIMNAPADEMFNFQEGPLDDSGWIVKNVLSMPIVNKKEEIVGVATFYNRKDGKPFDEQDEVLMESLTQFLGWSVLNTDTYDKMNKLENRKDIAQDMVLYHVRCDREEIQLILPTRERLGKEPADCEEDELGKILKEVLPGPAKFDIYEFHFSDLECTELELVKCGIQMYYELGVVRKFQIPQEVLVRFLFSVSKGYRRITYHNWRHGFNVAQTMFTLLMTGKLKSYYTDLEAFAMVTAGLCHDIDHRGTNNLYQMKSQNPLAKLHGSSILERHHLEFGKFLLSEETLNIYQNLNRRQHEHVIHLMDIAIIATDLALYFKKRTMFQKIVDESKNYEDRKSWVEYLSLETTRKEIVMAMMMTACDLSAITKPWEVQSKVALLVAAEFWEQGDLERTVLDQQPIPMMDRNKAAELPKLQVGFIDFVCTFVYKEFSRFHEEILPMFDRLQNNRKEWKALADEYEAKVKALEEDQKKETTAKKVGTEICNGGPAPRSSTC
Description: SPA assay, PDE6 (bovine retina, 3H-cyclic GMP substrate). The data set is classed as biochemical. How it is done: (§1) Inhibition of PDE activity in Hut78 cell lysate was determined using an SPA specific for cAMP (Amersham Pharmacia Biotech, Buckinghamshire, UK) according to the manufacturers instructions with minor modifications. Enzyme assays were performed at room temperature in the presence of 50 mM Tris HCl, pH7.5, containing 8.3 mM MgCl2, 1.7 mM EGTA and 0.5 mg/mL BSA. Each assay was performed in a 100 μL reaction volume in 96 well microtitre plates containing the above buffer, 0.3 ul of Hut78 cell lysate treated with 2 uM Zardaverine to inhibit PDE3 and PDE4, 0.05 uCi of [5′,8-3H] Adenosine 3′,5′-cyclic phosphate as an ammonium salt for 20 min. The reaction was terminated by the addition of 50 μl PDE SPA beads (1 mg) water with 10 mM cold cAMP (Sigma, St. Louis Mo.). The reaction mix was allowed to settle for 20 minutes before counting in a Top Count-NXT scintillation counter (Packard BioScience, Meriden, Conn.). […] The following PDEs/activators and enzyme sources were used: PDE1, bovine (Sigma St Louis), calmodulin; PDE2, rat kidney, cGMP; PDE3, human platelet; PDE4, rat kidney; PDE5, human platelet, and PDE6, bovine retina.
(§2) The LPS human PBMC TNF production assay was performed as described above.

A further data set addresses T2, PDE3 (Homo sapiens, UniProt Q14432).
T2 construct: PDE3, human platelet; from tissue; host or cells: human platelet
Description: SPA assay, PDE3 (human platelet). The data set is classed as biochemical. How it is done: as §1, §2

Data set [2] in a line: Pharmacokinetic data in mice for Example F1 and rolipram. The data set is classed as in vivo. To be noted: for Cmax: mouse, plasma.
For another data set, the target named is T3, PDE7 (Homo sapiens, UniProt Q13946).
T3 construct: endogenous in cells; host or cells: Hut78 cells (crude lysate)
T3 sequence (Q13946 whole entry): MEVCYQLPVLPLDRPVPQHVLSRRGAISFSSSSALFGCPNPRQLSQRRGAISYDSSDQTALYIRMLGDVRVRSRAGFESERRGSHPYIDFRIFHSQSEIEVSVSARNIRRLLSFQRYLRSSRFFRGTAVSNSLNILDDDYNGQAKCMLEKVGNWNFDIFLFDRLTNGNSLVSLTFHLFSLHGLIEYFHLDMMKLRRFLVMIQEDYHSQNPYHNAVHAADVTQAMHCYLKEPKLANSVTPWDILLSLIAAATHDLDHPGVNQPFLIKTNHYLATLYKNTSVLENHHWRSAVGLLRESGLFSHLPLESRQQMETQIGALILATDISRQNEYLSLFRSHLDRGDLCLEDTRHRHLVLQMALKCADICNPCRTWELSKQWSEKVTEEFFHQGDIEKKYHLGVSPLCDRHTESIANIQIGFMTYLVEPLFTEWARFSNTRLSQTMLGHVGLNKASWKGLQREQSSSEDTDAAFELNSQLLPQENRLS
Description: SPA assay for cAMP, PDE7 in Hut78 cell lysate treated with Zardaverine. The class given is biochemical. To be noted: for IC50: Hut78 cell lysate, SPA. How it is done: Hut78 cells were grown in 10% FCS in Iscoves Modified Dulbecco's Medium (Gibco BRL-Life Technologies, Grand Island, N.Y.) with antibiotics. Cells were centrifuged and resuspended in four volumes of [40 mM Tris (pH 7.5)/50 μM EDTA/200 μM PMSF with a cocktail of Protease inhibitors (Boehringher Mannheim, Indianapolis, Ind.)] at 4 C. Cells were homogenized using a Virtis homogenizer, and the lysate was centrifuged twice for 15 min at 15,000×g. Glycerol was added to a final volume of 50% for storage at −20C.
as §1, §2

The target of a further data set is T4, PDE5 (Homo sapiens, UniProt O76074).
T4 construct: PDE5, human platelet; from tissue; host or cells: human platelet
Description: SPA assay, PDE5 (human platelet, 3H-cyclic GMP substrate). The data set is classed as biochemical. How it is done:
as §1, §2

A further data set has as its system PDE4. Description: SPA assay, PDE4 (rat kidney). The class given is biochemical. The protocol:
as §1, §2

A further data set relates to PDE1. Description: SPA assay, PDE1 (3H-cyclic GMP substrate, calmodulin). The class given is biochemical. The settings on record: bovine PDE1, calmodulin. The protocol: as §1, §2
In data set [3] the test system is LPS human PBMC TNF production. Description: LPS human PBMC TNF production assay. The data set is classed as cell-based. The settings on record: LPS 6.25 ng/ml, 4 h. The protocol: Peripheral blood mononuclear cells (PBMC) were isolated from whole blood by density gradient centrifugation over Lymphoprep, 1.077. Cells were plated into 96 well U-bottom plates at 2.5×10^5 cells/well in 10% FBS RPMI 1640 (Life Technologies/Gibco-BRL) containing 10 ug/ml anti-CD3 (G19-4, Bristol-Myers Squibb P.R.I., Princeton, N.J.) and lug/ml anti-CD28 (9.3, Bristol-Myers Squibb P.R.I.) in the presence and absence of inhibitors. DMSO (used as a solvent for inhibitors) was added to the medium at 0.1% final concentration. The total volume per well was 200 μL. Cells were incubated at 37 C. 5% CO2 for 3 days, at which time 0.5 μCi of ^3H-thymidine was added to each well. Six hours following the addition of ^3H-thmidine, the plates were harvested onto filter plates, 30 ul EcoLite scintillant (ICN, Costa Mesa, Calif.) was added per well, and plates read on a Top Count-NXT scintillation counter.
The ability of compounds to inhibit the production and secretion of TNFα from leukocytes was performed using either PBMC (obtained as described above) or the THP-1 cell line as a source of monocytes. Compounds were diluted in RPMI 1640 supplemented with 10% FBS and DMSO at a final concentration of 0.2%. […] Soluble TNFα was detected by ELISA developed by R&D Systems (Minneapolis, Minn.) according to the manufacturers instructions. […]

Where [4] appears, read: mice, F1 30 mg/kg IP, rolipram 10 mg orally.

Read-outs that look alike come from different tables or passages of the source. Bounds are passed on as bounds.

T2 sequence (Q14432 whole entry): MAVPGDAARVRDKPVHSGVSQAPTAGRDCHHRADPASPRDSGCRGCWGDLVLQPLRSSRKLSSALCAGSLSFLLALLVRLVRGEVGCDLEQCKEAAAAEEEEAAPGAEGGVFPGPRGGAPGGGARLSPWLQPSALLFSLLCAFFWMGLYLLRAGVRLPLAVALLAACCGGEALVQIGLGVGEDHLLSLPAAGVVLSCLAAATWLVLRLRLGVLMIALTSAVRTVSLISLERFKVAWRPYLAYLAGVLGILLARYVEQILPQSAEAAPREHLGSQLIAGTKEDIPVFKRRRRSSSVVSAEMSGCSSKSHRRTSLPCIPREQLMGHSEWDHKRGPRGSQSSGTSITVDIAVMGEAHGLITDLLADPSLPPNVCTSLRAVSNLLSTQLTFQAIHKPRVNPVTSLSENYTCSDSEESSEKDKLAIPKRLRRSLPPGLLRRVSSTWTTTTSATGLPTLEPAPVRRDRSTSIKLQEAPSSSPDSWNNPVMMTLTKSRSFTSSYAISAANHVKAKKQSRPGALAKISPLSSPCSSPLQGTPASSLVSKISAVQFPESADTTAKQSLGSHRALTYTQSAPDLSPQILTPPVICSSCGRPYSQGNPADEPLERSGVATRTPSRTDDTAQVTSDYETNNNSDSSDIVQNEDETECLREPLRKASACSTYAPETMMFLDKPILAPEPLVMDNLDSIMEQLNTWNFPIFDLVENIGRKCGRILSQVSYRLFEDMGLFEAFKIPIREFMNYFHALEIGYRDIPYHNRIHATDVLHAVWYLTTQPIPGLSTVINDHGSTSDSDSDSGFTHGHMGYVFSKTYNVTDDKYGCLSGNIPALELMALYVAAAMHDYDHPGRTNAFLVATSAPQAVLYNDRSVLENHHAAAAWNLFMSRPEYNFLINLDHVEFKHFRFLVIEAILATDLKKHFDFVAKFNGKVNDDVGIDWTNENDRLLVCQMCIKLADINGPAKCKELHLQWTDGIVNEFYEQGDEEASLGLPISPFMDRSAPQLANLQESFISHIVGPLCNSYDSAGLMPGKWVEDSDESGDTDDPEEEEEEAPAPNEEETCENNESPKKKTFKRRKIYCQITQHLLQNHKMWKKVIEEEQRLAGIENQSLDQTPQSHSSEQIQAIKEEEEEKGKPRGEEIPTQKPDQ

Take `CCOC(=O)c1sc(Nc2nc(NCc3cc(OC)c(OC)c(OC)c3)cc(N3CCC(N(C)C)CC3)n2)nc1C` [Example F1, 2-[[4-[4-(Dimethylamino)-1-piperidinyl]-6-[[(3,4,5-trimethoxphenyl)methyl]amino]-2-pyrimidinyl]amino]-4-methyl-5-thiazolecarboxylic Acid, Ethyl Ester]: the “reduction in serum TNF” value in [1] (F1 7.5 mg/kg IP 15 min prior to LPS 50 μg/kg IP, vs vehicle) is 52%. The IC50 (in general, the point on the concentration scale where inhibition reaches its midpoint) at PDE6 was 7.5 µM; against PDE3, 32 µM; on PDE7, 30 nM; against PDE5 it was 2800 nM; in the data set with PDE4, 3000 nM; in the data set with PDE1 it was 4.3 µM. Also, the “plasma concentration of F1 compared with its PDE4 IC50” value in data set [2] (mice, F1 30 mg/kg) is recorded as “does not reach the PDE4 IC50”. The “change of Cmax of F1 by co-administration of rolipram” value in data set [2] (setting [4]) is recorded as “essentially unchanged”. For the same molecule, the Cmax – broadly, the maximum level reached in the sampled fluid or tissue – in data set [2] (mice, F1 30 mg/kg IP alone, read-out: Cmax, F1) was determined as 2200 nM. Further, the “selective for PDE7 over PDE4” value on PDE7 (ratio of PDE4 and PDE7 IC50) came to 100 fold.

As for `CCOC(=O)c1sc(Nc2nc(N3CCC(O)CC3)cc(N3CCC(O)CC3)n2)nc1C` [Example F2, 2-[4,6-Bis-(4-hydroxy-piperidin-1-yl)-pyrimidin-2-ylamino]-4-methyl-thiazole-5-carboxylic Acid Ethyl Ester], the “inhibited TNF production” value in data set [1] (F2 30 mg/kg, not statistically significant) is reported as 33.7%. The 50% inhibitory concentration (IC50) is 0.73 µM against PDE6; 20 µM on PDE3; more than 25000 nM in [3]; 60 nM against PDE7; 720 nM against PDE5; 3200 nM in the data set on PDE4. In the data set with PDE1, the IC50 came out at 4.8 µM.

Regarding `COc1ccc([C@]2(C#N)CC[C@@H](C(=O)O)CC2)cc1OC1CCCC1` [cilomilast, reference compound], the “inhibited TNF production” value in [1] (cilomilast 1 mg/kg) stood at 56%. Also, the IC50 on PDE3 was more than 10 µM; in data set [3] it was 430 nM; at PDE7, more than 50000 nM; on PDE5 it was more than 10000 nM; in the data set with PDE4, 30 nM; in the data set with PDE1, 3.4 µM.

`C[C@@H]1C[C@H]2[C@@H]3CCC4=CC(=O)C=C[C@]4(C)[C@@]3(F)[C@@H](O)C[C@]2(C)[C@@]1(O)C(=O)CO` [dexamethasone]: the “reduction in serum TNF” value in data set [1] (dexamethasone 5 mg/kg 60 min prior to LPS) is reported as 93%. In addition, the “inhibited TNF production” value in data set [1] (dexamethasone control) was 94%.

In the case of `COc1ccc(C2CNC(=O)C2)cc1OC1CCCC1` (centres unmarked) [rolipram, reference compound], in [1] (rolipram 5 mg/kg oral 60 min prior to LPS 50 μg/kg IP, vs vehicle), the “reduction in serum TNF” value is 54%. Further, the “Cmax of Rolipram reduced by a factor by co-administration with F1” value in [2] (setting [4]) worked out at 3 factor. Further, the Cmax in data set [2] (po, 10 mg) was 290 nM. For the same molecule, the IC50 against PDE7 is more than 10000 nM.

Values taken from patent US20030104974A1, “Dual inhibitorsof PDE 7 and PDE 4” (priority 2001, published 2003).
